Values joined by “and” are separate entries in the source; they are usually repeats but may differ in a detail not shown here. Equal values may be shown once.
System: 521955-158-R6-J3-PDC complex spheroid growth, % test/control
Assay: Anticancer human tumor 521955-158-R6-J3-PDC patient-derived pancreatic carcinoma cell line growth inhibition [Asc]
Conditions: for viability, T/C: stronger effect = lower value
Procedure, shortened: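 Tumor cells were grown as complex spheroids with human endothelial cells (HUVEC) and human mesenchymal stem cells as stroma. Agents were tested alone and in combination, in half-log steps down from the clinical Cmax, or from 10 microM where Cmax was unknown.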
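Further: spheroids exposed to compounds for 7 days.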
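Wherever viability, T/C is given: 100% = DMSO vehicle control wells.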

With `O=C(c1cc(Cc2n[nH]c(=O)c3ccccc23)ccc1F)N1CCN(C(=O)C2CC2)CC1` + CCN1C(C(=O)NC23CCC(C(=O)O)(CC2)CC3)C(c2cccc(Cl)c2F)C2(C(=O)Nc3cc(Cl)ccc32)C12CCCCC2 the IC50 (curve of first compound, second compound 0.00949 µM) was greater than 10 µM, the IC50 (curve of first compound, second compound 0.03 µM) was greater than 10 µM and the IC50 (curve of first compound, second compound 0.0949 µM) was greater than 10 µM. It also gave an IC50 (curve of first compound, second compound 0.3 µM) greater than 10 µM, an IC50 (curve of first compound, second compound 0.949 µM) greater than 10 µM and an IC50 (curve of first compound, second compound 3 µM) greater than 10 µM. It also gave a viability, T/C (second compound 0.00949 µM, first compound 0.0316 µM) of 109%, a viability, T/C (second compound 0.00949 µM, first compound 0.1 µM) of 98.4% and a viability, T/C (second compound 0.00949 µM, first compound 0.316 µM) of 92.4%. The viability, T/C (second compound 0.00949 µM, first compound 1 µM) was 83.7%, the viability, T/C (second compound 0.00949 µM, first compound 3.16 µM) was 83.4% and the viability, T/C (second compound 0.00949 µM, first compound 10 µM) was 89.7%. The viability, T/C (second compound 0.03 µM, first compound 0.0316 µM) was 127%, the viability, T/C (second compound 0.03 µM, first compound 0.1 µM) was 98.7% and the viability, T/C (second compound 0.03 µM, first compound 0.316 µM) was 94.2%. The viability, T/C (second compound 0.03 µM, first compound 1 µM) was 108%, the viability, T/C (second compound 0.03 µM, first compound 3.16 µM) was 82% and the viability, T/C (second compound 0.03 µM, first compound 10 µM) was 88.8%. For the same compound, the viability, T/C (second compound 0.0949 µM, first compound 0.0316 µM) was 106%, the viability, T/C (second compound 0.0949 µM, first compound 0.1 µM) was 98.6% and the viability, T/C (second compound 0.0949 µM, first compound 0.316 µM) was 88.6%. For the same compound, the viability, T/C (second compound 0.0949 µM, first compound 1 µM) was 101%, the viability, T/C (second compound 0.0949 µM, first compound 3.16 µM) was 96.4% and the viability, T/C (second compound 0.0949 µM, first compound 10 µM) was 89.8%. For the same compound, the viability, T/C (second compound 0.3 µM, first compound 0.0316 µM) was 113%, the viability, T/C (second compound 0.3 µM, first compound 0.1 µM) was 110% and the viability, T/C (second compound 0.3 µM, first compound 0.316 µM) was 135%. It also gave a viability, T/C (second compound 0.3 µM, first compound 1 µM) of 90.6%, a viability, T/C (second compound 0.3 µM, first compound 3.16 µM) of 89.3% and a viability, T/C (second compound 0.3 µM, first compound 10 µM) of 104%. It also gave a viability, T/C (second compound 0.949 µM, first compound 0.0316 µM) of 113%, a viability, T/C (second compound 0.949 µM, first compound 0.1 µM) of 114% and a viability, T/C (second compound 0.949 µM, first compound 0.316 µM) of 104%. For the same compound, the viability, T/C (second compound 0.949 µM, first compound 1 µM) was 92.1%, the viability, T/C (second compound 0.949 µM, first compound 3.16 µM) was 89.2% and the viability, T/C (second compound 0.949 µM, first compound 10 µM) was 89%. The viability, T/C (second compound 3 µM, first compound 0.0316 µM) was 90.8%, the viability, T/C (second compound 3 µM, first compound 0.1 µM) was 100% and the viability, T/C (second compound 3 µM, first compound 0.316 µM) was 96.5%. It also gave a viability, T/C (second compound 3 µM, first compound 1 µM) of 94.4%, a viability, T/C (second compound 3 µM, first compound 3.16 µM) of 104% and a viability, T/C (second compound 3 µM, first compound 10 µM) of 101%.

With `Cn1ncnc1[C@H]1c2n[nH]c(=O)c3cc(F)cc(c23)N[C@@H]1c1ccc(F)cc1` + Cc1c(S(C)(=O)=O)c(-c2cc(F)cc(N3CCN(c4ccc(NS(=O)(=O)c5ccc(NC(CCN6CCC(C(=O)OCCCP(=O)(O)O)CC6)CSc6ccccc6)c(S(=O)(=O)C(F)(F)F)c5)cc4)CC3)c2)c(-c2ccc(Cl)cc2)n1C(C)C the IC50 (curve of first compound, second compound 0.0316 µM) was greater than 0.1 µM, the IC50 (curve of first compound, second compound 0.1 µM) was greater than 0.1 µM and the IC50 (curve of first compound, second compound 0.316 µM) was 0.00481 µM. For the same compound, the IC50 (curve of first compound, second compound 1 µM) was less than 0.000316 µM, the IC50 (curve of first compound, second compound 3.16 µM) was less than 0.000316 µM and the IC50 (curve of first compound, second compound 10 µM) was less than 0.000316 µM. It also gave a viability, T/C (second compound 0.0316 µM, first compound 0.000316 µM) of 84.8%, a viability, T/C (second compound 0.0316 µM, first compound 0.001 µM) of 92.7% and a viability, T/C (second compound 0.0316 µM, first compound 0.00316 µM) of 70.5%. The viability, T/C (second compound 0.0316 µM, first compound 0.01 µM) was 82%, the viability, T/C (second compound 0.0316 µM, first compound 0.0316 µM) was 77% and the viability, T/C (second compound 0.0316 µM, first compound 0.1 µM) was 68.9%. For the same compound, the viability, T/C (second compound 0.1 µM, first compound 0.000316 µM) was 86.3%, the viability, T/C (second compound 0.1 µM, first compound 0.001 µM) was 75.1% and the viability, T/C (second compound 0.1 µM, first compound 0.00316 µM) was 75.3%. The viability, T/C (second compound 0.1 µM, first compound 0.01 µM) was 82.3%, the viability, T/C (second compound 0.1 µM, first compound 0.0316 µM) was 61% and the viability, T/C (second compound 0.1 µM, first compound 0.1 µM) was 67.6%. The viability, T/C (second compound 0.316 µM, first compound 0.000316 µM) was 53.4%, the viability, T/C (second compound 0.316 µM, first compound 0.001 µM) was 54.2% and the viability, T/C (second compound 0.316 µM, first compound 0.00316 µM) was 52.5%. The viability, T/C (second compound 0.316 µM, first compound 0.01 µM) was 44.4%, the viability, T/C (second compound 0.316 µM, first compound 0.0316 µM) was 40.8% and the viability, T/C (second compound 0.316 µM, first compound 0.1 µM) was 51.5%. It also gave a viability, T/C (second compound 1 µM, first compound 0.000316 µM) of 35.1%, a viability, T/C (second compound 1 µM, first compound 0.001 µM) of 32.7% and a viability, T/C (second compound 1 µM, first compound 0.00316 µM) of 41.4%. It also gave a viability, T/C (second compound 1 µM, first compound 0.01 µM) of 29.8%, a viability, T/C (second compound 1 µM, first compound 0.0316 µM) of 35% and a viability, T/C (second compound 1 µM, first compound 0.1 µM) of 40.9%. It also gave a viability, T/C (second compound 3.16 µM, first compound 0.000316 µM) of 23%, a viability, T/C (second compound 3.16 µM, first compound 0.001 µM) of 24.3% and a viability, T/C (second compound 3.16 µM, first compound 0.00316 µM) of 21.1%. For the same compound, the viability, T/C (second compound 3.16 µM, first compound 0.01 µM) was 19.9%, the viability, T/C (second compound 3.16 µM, first compound 0.0316 µM) was 20.8% and the viability, T/C (second compound 3.16 µM, first compound 0.1 µM) was 16.4%. The viability, T/C (second compound 10 µM, first compound 0.000316 µM) was 14.8%, the viability, T/C (second compound 10 µM, first compound 0.001 µM) was 17.9% and the viability, T/C (second compound 10 µM, first compound 0.00316 µM) was 26.6%. For the same compound, the viability, T/C (second compound 10 µM, first compound 0.01 µM) was 15.5%, the viability, T/C (second compound 10 µM, first compound 0.0316 µM) was 15% and the viability, T/C (second compound 10 µM, first compound 0.1 µM) was 11%.

`C#Cc1c(F)ccc2cc(O)cc(-c3ncc4c(N5CC6CCC(C5)N6)nc(OCC56CCCN5CC(F)C6)nc4c3F)c12` (stereo not drawn) was tested, and the viability, T/C (compound 0.0316 µM) was 60.7% and 66.5% and 60.8%, the viability, T/C (compound 0.1 µM) was 52.9% and 52% and 53.5% and the viability, T/C (compound 0.316 µM) was 46% and 58.3% and 47.4%. For the same compound, the viability, T/C (compound 1 µM) was 48% and 45.1% and 47%, the viability, T/C (compound 3.16 µM) was 33.9% and 35.5% and 44.9% and the viability, T/C (compound 10 µM) was 18.6% and 32.2%. The IC50 (curve of compound) was 0.342 µM and 0.452 µM and 0.387 µM.

For `O=C(c1cc(Cc2n[nH]c(=O)c3ccccc23)ccc1F)N1CCN(C(=O)C2CC2)CC1`, the viability, T/C (compound 0.0316 µM) was 103% and 91.4% and 91.6%, the viability, T/C (compound 0.1 µM) was 92.6% and 93.9% and 101% and the viability, T/C (compound 0.316 µM) was 100% and 101% and 87.3%. The viability, T/C (compound 1 µM) was 108% and 101% and 91.8%, the viability, T/C (compound 3.16 µM) was 98.8% and 94.8% and 124% and the viability, T/C (compound 10 µM) was 98.6% and 78.8% and 86.5%. The IC50 (curve of compound) was greater than 10 µM.

Reference: PubChem BioAssay AID1963451 (Molecular Pharmacology Branch, DTP, NCI, 2024)
